In patent US12110533B2, “Stabilisation and isolation of extracellular nucleic acids” (Qiagen GmbH, priority 2011, dated 2024):
Peptide text beside a SMILES is read from it. * marks the point of attachment. Cbz = O=C(OCc1ccccc1)*; CH2Cl = ClC*; CH2F = FC*

Legend:
whole blood samples [1] = experiment: 18S DNA duplex real time PCR assay: increase of ribosomal 18S DNA (ccfDNA) in plasma of stored whole blood; type: cell-based, human; conditions: for change of ccfDNA level in plasma (day X copies/day 0 copies): Example 8, RT up to 6 days, DHA 0.5 M, inositol 0.05 M, maltitol 0.01 M, mannitol; for increase of ribosomal 18S DNA in plasma: Example 1, 20 μM in whole blood; for increase of ribosomal 18S DNA in plasma / increase of genomic DNA in plasma: within 7 days of storage at RT; for increase of genomic DNA in plasma: Example 2
Description: (§1) A test system was designed, wherein cell-containing biological samples, here whole blood samples, were incubated at room temperature (RT) for up to 6 or 7 days. Therein, the sample stabilizing properties of the additives of the present invention were tested on day 0, day 3 and day 6/7 the samples.
(§2) The circulating, extracellular nucleic acids were purified from the obtained plasma samples using the QIAamp® Circulating NA Kit (according to the handbook). In brief: • 10 ml sample input; • lysis: 1 ml Proteinase K and 8 ml Buffer ACL (QIAGEN) • binding: 18 ml Buffer ACB (QIAGEN) • wash-steps: unchanged and according to handbook • elution in 60 μl Buffer AVE (QIAGEN)
4.2. DNA quantification with a real time PCR assay, sensitive for DNA degradation (target: 500 and 66 bp long ribosomal 18S DNA coding sequences).
(samples were diluted 1:10 before amplification)
Detection of ribosomal 18S DNA by quantitative real-time PCR, makes it possible to calculate the x-fold increase of DNA from day 0 to day 3 or 7 (calculation: division of day 3 (or 7) copies by day 0 copies).
The division of short amplicon copy number by long amplicon copy number (66 bp/500 bp) indicates whether the amount of detected short or long amplicons changes over time in a similar way. A decrease of this ratio implies a stronger release of longer rather than of shorter DNA molecules and can be interpreted as release of high molecular weight genomic DNA from blood cells.
On day 0, day 3 and day 6, replicates were processed as follows. […] The cleared plasma fraction was collected and the extracellular nucleic acids were isolated using the QIAamp Circulating nucleic acid kit (1 ml input material, 60 μl elution volume). […] Values that are close to 1 imply preserved levels of ccfDNA. The higher the value, the less stabilization is achieved.

fragmentin 2 = biological target: T1, fragmentin 2 (Rattus norvegicus, UniProt P18291); conditions: read-out: ID50 (the source's name); cited from earlier work
T1 sequence (P18291 21-248): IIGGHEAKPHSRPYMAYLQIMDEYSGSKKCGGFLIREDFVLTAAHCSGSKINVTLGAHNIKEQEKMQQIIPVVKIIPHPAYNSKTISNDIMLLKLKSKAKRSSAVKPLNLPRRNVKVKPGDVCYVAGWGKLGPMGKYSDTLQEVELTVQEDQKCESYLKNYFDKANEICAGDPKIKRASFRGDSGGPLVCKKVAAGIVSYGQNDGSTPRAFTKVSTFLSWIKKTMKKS

[2] = administered in rats in vivo; cited from earlier work
calpain II = biological target: T2, calpain II (Homo sapiens, UniProt P17655); conditions: irreversible inhibitor; cited from earlier work
T2 sequence (P17655 1-700): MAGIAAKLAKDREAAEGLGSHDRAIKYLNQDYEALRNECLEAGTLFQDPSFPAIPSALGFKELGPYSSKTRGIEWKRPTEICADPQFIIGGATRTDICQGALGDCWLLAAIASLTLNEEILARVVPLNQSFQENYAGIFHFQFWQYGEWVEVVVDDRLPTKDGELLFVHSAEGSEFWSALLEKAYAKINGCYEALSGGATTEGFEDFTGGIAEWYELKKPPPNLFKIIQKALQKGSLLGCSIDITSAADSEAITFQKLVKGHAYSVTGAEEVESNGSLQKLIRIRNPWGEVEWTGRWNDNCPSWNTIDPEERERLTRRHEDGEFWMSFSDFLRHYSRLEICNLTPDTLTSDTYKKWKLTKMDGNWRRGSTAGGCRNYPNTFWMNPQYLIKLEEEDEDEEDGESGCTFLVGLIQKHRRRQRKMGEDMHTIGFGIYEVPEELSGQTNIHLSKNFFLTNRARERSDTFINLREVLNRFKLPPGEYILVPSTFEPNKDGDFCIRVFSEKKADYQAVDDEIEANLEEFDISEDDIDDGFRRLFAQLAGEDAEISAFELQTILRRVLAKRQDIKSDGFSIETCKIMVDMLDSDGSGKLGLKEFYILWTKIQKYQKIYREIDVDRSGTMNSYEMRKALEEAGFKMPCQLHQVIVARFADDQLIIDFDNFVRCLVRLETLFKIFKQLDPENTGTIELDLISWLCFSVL
T2 sequence (P04632 1-268 partner): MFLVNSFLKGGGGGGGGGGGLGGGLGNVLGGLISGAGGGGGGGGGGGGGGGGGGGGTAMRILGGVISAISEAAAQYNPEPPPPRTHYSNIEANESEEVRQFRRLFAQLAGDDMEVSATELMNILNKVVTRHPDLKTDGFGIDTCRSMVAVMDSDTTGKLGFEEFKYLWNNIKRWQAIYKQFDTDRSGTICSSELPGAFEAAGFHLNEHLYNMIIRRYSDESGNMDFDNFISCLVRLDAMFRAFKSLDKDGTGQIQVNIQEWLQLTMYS

cathepsin L = cathepsin L (Homo sapiens, UniProt P07711); conditions: cited from earlier work
cathepsin L, sequence (P07711 114-333, species assumed): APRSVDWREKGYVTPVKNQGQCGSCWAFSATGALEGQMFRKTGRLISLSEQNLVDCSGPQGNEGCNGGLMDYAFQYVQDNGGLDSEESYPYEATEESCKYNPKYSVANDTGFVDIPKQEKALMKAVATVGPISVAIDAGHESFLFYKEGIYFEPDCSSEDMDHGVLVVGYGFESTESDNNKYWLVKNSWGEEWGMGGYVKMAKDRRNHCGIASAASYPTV

whole blood samples [3] = experiment: Chip gel electrophoresis of DNA isolated from plasma of stored whole blood (DNA size distribution, blood cell stability/DNA release); type: cell-based; conditions: for ladder-like pattern (release/fragmentation of genomic DNA): Example 1, 20 μM in 10 ml K2E whole blood, RT, day 3 and day 7, vs DMSO control and K2E blood; for genomic DNA release/fragmentation: Example 2, day 7, RT
Description: as §1, with “samples. The samples were processed according to the following protocols, where applicable (for details, see also the specific examples in the results section):” for “samples.”
To separate the blood plasma from the whole blood, the blood samples were centrifuged for 15 min at 5000 rpm, and the obtained plasma samples were again centrifuged for 10 min at 16,000×g at 4° C.
as §2
4.1. Measurement of the blood cell stability/DNA release by the determination of DNA size distribution using a chip gel electrophoresis (2100 Bioanalyzer; Agilent Technologies; Inc., USA) according to manufacturer's instruction (see handbook Agilent DNA 7500 and DNA 12000 Kit Guide), but 1.5 μl instead of 1 μl sample were transferred to the wells.
The eluted circulating cell-free DNA was separated by size using chip gel electrophoresis (for details on the method see above, I, 4.1). […] The DMSO control and the K2E blood (not treated according to the teachings of the present invention) show the same ladder-like pattern of bands. This pattern occurs in samples where apoptosis takes place. During apoptosis, endonucleases degrade genomic DNA at inter-nucleosomal linker regions and produce DNA fragments of circa 180 bp or multiples of 180 bp. Thus, apoptosis occurs in samples which show a clear ladder-like pattern. Furthermore, the strength (darkness) of the pattern is decisive. The darker the bands, the more genomic DNA was released from the cells and thus contaminates the extracellular nucleic acid population.

Compound: OCC(O)C(O)C(O)C(O)CO (stereo not drawn) [mannitol, Hexane-1,2,3,4,5,6-hexol]
- change of ccfDNA level in plasma (day X copies/day 0 copies) (whole blood samples [1]): stabilization effects over 3 days

Compound: CC(NC(=O)OCc1ccccc1)C(=O)NC(C)C(=O)NC(CC(=O)O)C(=O)CCl (stereo not drawn) [Granzyme B Inhibitor I, Z-Ala-Ala-Asp-CH2Cl] (Cbz-Ala-Ala-Asp-CH2Cl; configuration not given here)
- IC50 (fragmentin 2): 0.3 µM

Compound: N=c1sc2c(n1CC(=O)c1ccc([N+](=O)[O-])cc1)CCCC2 [Pifithrin-α, ρ-Nitro]
- more potent than Pifithrin-α in vivo [2]: 100-fold more potent than Pifithrin-α when adminstered in rats in

Compound: CC(C)C[C@H](NC(=O)OCc1ccccc1)C(=O)N[C@@H](CC(C)C)C(=O)N[C@@H](Cc1ccc(O)cc1)C(=O)CF [Calpain Inhibitor IV, Z-Leu-Leu-Tyr-CH2F] (Cbz-Leu-Leu-Tyr-CH2F)
- k2 (calpain II): 28,900 M-1s-1). Also acts as an inhibitor of cathepsin L (k2 =
- k2 (cathepsin L): 680,000 M-1s-1).

Compound: CC(C)C(NC(=O)c1ccc2ccccc2n1)C(=O)NC(CC(=O)O)C(=O)COc1c(F)cccc1F (stereo not drawn) [Q-VD-OPh, Quinoline-Val-Asp-CH2-OPH]
- ladder-like pattern (release/fragmentation of genomic DNA) (whole blood samples [3]): significantly reduced ladder-like patterns
- genomic DNA release/fragmentation (whole blood samples [3]; 1 μM with 21.4 mM glucose): significantly reduced
- genomic DNA release/fragmentation (whole blood samples [3]; 4 μM with 21.4 mM glucose): effect is improved
- increase of ribosomal 18S DNA in plasma (whole blood samples [1]): reduced increase of DNA
- increase of genomic DNA in plasma (whole blood samples [1]; 1 μM with 21 mM glucose): only a minor increase
- increase of genomic DNA in plasma (whole blood samples [1]; 4 μM with 21 mM glucose): ≤ 4 fold

Compound: Cbz-Val-Ala-Asp(OMe)-CH2F
- ladder-like pattern (release/fragmentation of genomic DNA) (whole blood samples [3]): reduced ladder-like pattern
- increase of ribosomal 18S DNA in plasma (whole blood samples [1]): more prominent on day 7

Compound: O[C@H]1[C@H](O)[C@@H](O)[C@H](O)[C@@H](O)[C@H]1O [inositol, Cyclohexane-1,2,3,4,5,6-geksol]
- change of ccfDNA level in plasma (day X copies/day 0 copies) (whole blood samples [1]): suitable alternatives

Compound: OC[C@@H](O)[C@@H](O[C@H]1O[C@H](CO)[C@@H](O)[C@H](O)[C@H]1O)[C@H](O)[C@@H](O)CO [maltitol, 4-O-α-D-Glucopyranosyl-D-glucitol]
- change of ccfDNA level in plasma (day X copies/day 0 copies) (whole blood samples [1]): suitable alternatives
